Reference: patent US11932654B2, “Nimbolide analogs as anti-cancer agents and preparation thereof” (priority 2018, dated 2024)

What was measured:
[1] = Acute toxicity test with histopathology
Description: Acute toxicity test: Safety tests begin with acute toxicity testing, where the animals are given a single dose of the test compound. The aim of the tests is to determine the range between the dose that causes no adverse effect and the dose that is life-threatening. […] Different doses (50, 25, 10, and 5 mg/kg body weight) of the test compound are given to the animals separately through IP injection. Post injection, the animals were monitored for the first 4 h and observed at every hourly interval for next 24 h. Further, animals were observed everyday for 14 days for any signs of toxic effects and behavior of animals. On day 14 all the surviving animals are sacrificed by a humane method and dissected to investigate signs of toxicity internally. […] If the drug is intended for the treatment of life-threatening diseases, toxicity is less of a concern than in a drug intended for use in healthy individuals.
Histopathological examination: For pathological studies, 5 μm sections of formalin-fixed, paraffin-embedded tissue were prepared and stained with haematoxylin and eosin. After haematoxylin-eosin (HE) staining, the slides were observed and the images were taken using optical microscope (Axioplan-II imaging). All slides were reviewed in a blinded fashion by a single pathologist and assessed for the presence of necrotic lesions (nodules) in the tumors and organs of different groups of mice.

caspase-8 = test: Caspase assay activity, caspase-8, Panc-1 cells; type: cell-based; settings: fluorimetric assay, increasing concentrations
Description: Caspase assay activity: Caspase-3, caspase-8 and caspase-9 protease activities were determined using a commercial fluorescence assay kit according to the manufacturer's instructions, Briefly, pancreatic cancer cells were treated with different concentrations of IM-1372-Kn-13 for 24 h were re-suspended in 50 μL of chilled cell lysis buffer; cells were then incubated on ice for 10 min and centrifuged for 1 min in a micro-centrifuge (10,000 g). Then supernatants were transferred (cytosolic extract) to a fresh tube and protein concentration was assayed. Next, diluted 100 μg protein was added to 50 μL cell lysis buffer for each assay. Subsequently, 50 μL of 2× reaction buffer and 5 μL of the 4 mM Ac-DEVD AMC (caspase-3)/Ac-VETD-AMC (caspase-8)/[…] were added and incubated at 37° C. for 2 h (samples read at […] in a microtiter plate reader).

[2] = system: Pan-02 cells xenograft tumors; test: Histopathological examination of tumors and organs of xenograft mice; type: in vivo, nude mice
Description: Establishment of Pancreatic cancer xenograft model: To establish tumor in mice, Pan-02 cells (7×10^6) were suspended in 1:1 RPMI medium mixed with matrigel and subcutaneously implanted on right flank of the each mice. The injection sites were examined daily for the appearance of tumors. On 10th day these animals were randomized and divided into 3 groups (6 mice in each group). Group I served as control group received 20% ethanol three times in a week. Test group animals in Group II and III received intratumoral injection of IM-1372-Kn-13 at 10 mg and 25 mg/kg body weight respectively three times in a week. All groups received 5 repeated doses in 12 days. Mice were weighed and tumor volumes were measured 3 times a week by Vernier caliper. Tumor volume in individual mice was calculated by the following formula. 0.5×L (W)^2, Where L is length, W is width of the tumor. The control group animals were euthanized when tumor volume is reached heavier to animal. One-week after completion of treatment period, the animals were sacrificed, and tumors were excised, fixed, and embedded in paraffin. At the end of treatment, blood samples were collected to perform clinical biochemistry.

[3] = system: Panc-1 pancreatic cancer cell line; test: In vitro anticancer activity, SRB assay, Panc-1; type: cell-based; settings: Homo sapiens, 48 h, NA = Not Active
Description: Cell culture: Human lung adenocarcinoma cell line (A549 cell line), pancreatic cancer cell line (Panc-1, Pan-02), prostate cancer cell line (DU145, PC3), Brest cancer cell line (MCF-7) was grown in DIEM (Dulbecco's modifications of eagle's medium with L-glutamine & 4.5 g/L glucose) supplemented with fetal bovine serum in a humidified atmosphere of a 5% CO2 at 37° C.
In vitro anticancer activity: Cells were harvested from exponential phase cultures by trypsinization, counted and plated in 96-well plate. Optimal seeding densities for different cell lines in each plate were 5000 cells per well. After 24 h cells were treated with \ the newly synthesized compound at a dose range of 0.1-100 μm final concentration. Thereafter, cells were allowed to grow for 48 h before determination of cell survival by the SRB assay. Then the cells were fixed with 10% cold trichloroacetic acid for 1 h at 4° C. After two washes with deionized water, fixed cells were stained with 50 μL of SRB solution (1% in acetic acid) for 30 min and subsequently washed twice with 1% acetic acid to remove unbound stain. The plates were left to dry at room temperature and bound stain was solubilized with 100 μL of 10 mM buffered Tris base for reading the […] at 540 nm.

[4] = Biochemical analysis in acute toxicity studies; type: in vivo, mice
Description: Biochemical analysis: In acute toxicity experiment, blood samples were collected from all the animals 1 week after the last dose and mice were sacrificed by cervical decapitation. The obtained serum was analyzed in clinical chemistry for the assessment of liver function tests (LFT), activity of serum alkaline phosphatase (ALP), alanine aminotransferase (ALT), aspartate aminotransferase (AST), kidney function tests (RFT) (serum urea and creatinine). The same tests were performed for serum samples collected from three groups of tumor xenograft mice used for determining in vivo activity of test compound against pancreatic cancer. The measurement of these biochemical parameters was done in Clinical Biochemical analyzer (Tulip coralab 3000™).

[5] = single IP dose 5 mg/kg body weight
[6] = single IP dose 10 mg/kg body weight
[7] = single IP dose 25 mg/kg body weight
[8] = single IP dose 50 mg/kg body weight

COC(=O)C[C@H]1[C@]2(C)C3=C(C)[C@H](C4=CC5OC4C(C(=O)OC)=C5C(=O)OC)C[C@@H]3O[C@@H]2[C@@H]2OC(=O)[C@]3(C)C=CC(=O)[C@@]1(C)C23 (stereo partly shown) [A4]
organ histopathology ([1]; 25 mg/kg body weight): all organs including liver, kidney and spleen appeared normal
survival ([1]; 25 mg/kg, 10 mg/kg and 5 mg/kg): survived beyond the 24 h of observation
kidney histopathology ([1]; 50 mg/kg body weight): moderate capsular thickening and fibrosis in the renal capsules
liver histopathology ([1]; 50 mg/kg body weight): minor inflammation in the liver
adverse gastrointestinal effects ([1]; all the mice used in the experiment): no adverse gastrointestinal effects were observed
mortality ([1]; one mouse that received 50 mg/kg): died within 24 h
toxic effects in acute toxicity studies ([1]; up to 50 mg/kg): failed to show any toxic effects
activity of caspase-8 (caspase-8): increased significantly in a dose-dependent manner
animals showing liver metastasis ([2]; printed 'group I' (control group: 50%)): 10 % of animals
metastatic invasion in liver, kidney and spleen ([2]; printed 'group II'): no metastatic invasion was found
liver metastasis in treated animals ([2]; treated xenograft animals vs control group): no liver metastasis
effect on the other tissues of xenograft mice ([2]; xenograft mice, intratumoral): did not show any effect
IC50 [3]: 9.08 µM
ALT [4, 5]: 48 U/L
AST [4, 5]: 63 U/L
BUN [4, 5]: 18 mg/dL
Cholesterol [4, 5]: 175 mg/dL
Creatinine [4, 5]: 0.4 mg/dL
Glucose [4, 5]: 101 mg/dL
ALT [4, 6]: 66 U/L
AST [4, 6]: 66 U/L
BUN [4, 6]: 21 mg/dL
Cholesterol [4, 6]: 175 mg/dL
Creatinine [4, 6]: 0.4 mg/dL
Glucose [4, 6]: 100 mg/dL
ALT [4, 7]: 67 U/L
AST [4, 7]: 74.5 U/L
BUN [4, 7]: 24.5 mg/dL
Cholesterol [4, 7]: 163.5 mg/dL
Creatinine [4, 7]: 0.35 mg/dL
Glucose [4, 7]: 96 mg/dL
ALT [4, 8]: 95 U/L
AST [4, 8]: 128 U/L
BUN [4, 8]: 29 mg/dL
Cholesterol [4, 8]: 178 mg/dL
Creatinine [4, 8]: 0.9 mg/dL
Glucose [4, 8]: 102 mg/dL
